Source: article PMC8459971, “Evaluation of the hepatotoxicity of the novel GPR40 (FFAR1) agonist CPL207280 in the rat and monkey” (PLoS ONE, 2021)
Values joined by “and” are separate entries in the source; they are usually repeats but may differ in a detail not shown here. Equal values may be shown once. Read-outs that look alike come from different tables or passages of the source.

Legend:
[1] = Viability assay, human primary hepatocytes, RT-glo, 48 h; assay type: cell-based; conditions: human, primary human hepatocytes, sheet Fig1 panel C (primary human hepatocytes), 48 h, replicates, read-out: viability, normalized to DMSO-treated controls
Description: (§1) To study the viability of the liver cells, 5 × 10^3 HepG2 (ATCC®) or human primary cells (ThermoFisher Scientific, USA) were seeded in 100 μL of DMEM media (Gibco; Thermo Fisher Scientific, USA) supplemented with fetal bovine serum (FBS)- in a 96-well plate. […] The experiments were performed in triplicates.

[2] = tested on: human primary hepatocytes; assay: as above; assay type: cell-based; conditions: for viability, normalized to DMSO-treated controls: sheet Fig1 panel C (primary human hepatocytes), replicates, in % (unit assumed)
Description: as §1

[3] = Stability in microsomes, human; assay type: in vitro ADME; conditions: for average DEG [%]: human microsomes, with cofactors
Description: (§2) The final incubation volume was 500 μL. Two control compounds (verapamil and donepezil) were included for each microsomal species, along with the appropriate vehicle control. The reactions were terminated by transferring 50 μL of incubate to 100 μL methanol containing an internal standard (metoprolol) at appropriate time points (0, 10, 20, 40, 60, and 120 min for the test compound and 0, 5, 10, 20, 40, and 60 min for the control compounds). The termination plates were centrifuged at 4000 x g at 4°C for 30 min to precipitate the protein. The supernatants were then collected for analysis, and LC-MS/MS was used for detection purposes. The system consisted of an Acquity™ Binary Solvent Manager, Acquity™ 4-position heated column manager, 2777 Ultra High Pressure Autosampler, and a Xevo-TQ MS triple quadrupole mass spectrometer (Waters Ltd., Herts, UK). This process was carried out twice.

[4] = Stability in microsomes, dog; assay type: in vitro ADME; conditions: for average DEG [%]: dog microsomes, with cofactors
Description: as §2

[5] = Single-dose pharmacokinetics in rats (p.o. and i.v.); assay type: in vivo, rat; set-up: plasma conc: unit not given here
[6] = target: MRP3 (Homo sapiens, UniProt O15438); assay: Vesicular transport inhibition assay, MRP3; conditions: for Accumulation (counts per minute; CPM) with AMP / Accumulation (counts per minute; CPM) with ATP: MRP3;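 note: membrane vesicles with radiolabelled probe substrate and 2 mM glutathione, 4 mM ATP versus AMP background control, vesicle-trapped substrate quantified by liquid scintillation counting after filtration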;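 for Accumulation (counts per minute; CPM) with AMP: ATP 4 mM vs AMP background separates transporter uptake from diffusion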;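 for Accumulation (counts per minute; CPM) with ATP: ATP 4 mM vs AMP background separates transporter uptake from diffusion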
Sequence of MRP3 (O15438 whole entry, the tested form may be a part): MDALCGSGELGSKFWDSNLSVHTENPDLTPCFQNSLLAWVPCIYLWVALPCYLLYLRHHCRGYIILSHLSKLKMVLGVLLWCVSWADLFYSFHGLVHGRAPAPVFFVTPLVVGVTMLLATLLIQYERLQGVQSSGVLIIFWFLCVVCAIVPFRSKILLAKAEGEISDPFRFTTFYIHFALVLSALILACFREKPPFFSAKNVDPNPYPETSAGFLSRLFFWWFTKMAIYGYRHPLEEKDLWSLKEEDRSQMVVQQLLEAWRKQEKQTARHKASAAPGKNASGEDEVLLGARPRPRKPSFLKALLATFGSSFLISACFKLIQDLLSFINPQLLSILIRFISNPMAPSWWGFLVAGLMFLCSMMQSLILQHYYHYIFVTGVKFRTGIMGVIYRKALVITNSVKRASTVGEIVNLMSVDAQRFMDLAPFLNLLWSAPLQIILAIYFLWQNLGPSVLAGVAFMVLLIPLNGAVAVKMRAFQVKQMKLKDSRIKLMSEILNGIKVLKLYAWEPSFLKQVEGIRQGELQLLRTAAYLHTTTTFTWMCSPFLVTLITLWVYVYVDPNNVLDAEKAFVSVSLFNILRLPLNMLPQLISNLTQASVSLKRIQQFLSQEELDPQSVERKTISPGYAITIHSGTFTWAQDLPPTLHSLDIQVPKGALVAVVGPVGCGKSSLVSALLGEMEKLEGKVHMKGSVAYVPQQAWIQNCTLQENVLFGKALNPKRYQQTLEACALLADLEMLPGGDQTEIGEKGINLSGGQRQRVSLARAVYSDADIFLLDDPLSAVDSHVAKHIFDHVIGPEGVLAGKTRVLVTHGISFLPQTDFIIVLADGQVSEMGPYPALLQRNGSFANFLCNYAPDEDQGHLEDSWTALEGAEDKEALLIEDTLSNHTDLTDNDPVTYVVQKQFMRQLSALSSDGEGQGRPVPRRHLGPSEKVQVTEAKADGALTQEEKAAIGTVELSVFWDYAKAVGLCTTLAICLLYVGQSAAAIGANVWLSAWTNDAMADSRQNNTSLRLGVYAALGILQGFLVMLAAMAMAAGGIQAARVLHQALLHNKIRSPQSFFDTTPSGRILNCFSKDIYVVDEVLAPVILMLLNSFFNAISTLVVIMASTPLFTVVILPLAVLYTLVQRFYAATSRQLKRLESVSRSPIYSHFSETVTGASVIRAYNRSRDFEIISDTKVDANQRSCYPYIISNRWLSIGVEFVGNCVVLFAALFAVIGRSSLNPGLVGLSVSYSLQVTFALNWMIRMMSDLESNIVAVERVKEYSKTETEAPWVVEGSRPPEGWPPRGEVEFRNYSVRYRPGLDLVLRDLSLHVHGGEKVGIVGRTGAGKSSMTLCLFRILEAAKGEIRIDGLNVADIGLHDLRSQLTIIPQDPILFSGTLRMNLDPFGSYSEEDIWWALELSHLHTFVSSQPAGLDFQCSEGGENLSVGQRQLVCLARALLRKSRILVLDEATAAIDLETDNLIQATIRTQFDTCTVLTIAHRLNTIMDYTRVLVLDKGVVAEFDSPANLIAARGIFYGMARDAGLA
Description: In the vesicular transport inhibition assay (for BSEP, MRP) compounds were incubated with membrane vesicle preparations and the probe substrate. Incubations were carried out in the presence of 4 mM ATP or AMP to distinguish between transporter-mediated uptake and passive diffusion into the vesicles. For MRP2 and MRP3, reactions were carried out in the presence of 2 mM glutathione. Compounds were added to the reaction mixture in 0.75 μL of solvent (1% of the final incubation volume). […] Reactions were initiated by the addition of 25 μL of 12 mM MgATP (or 12 mM AMP in assay buffer as a background control) and preincubated separately. Reactions were quenched by the addition of 200 μL of ice-cold washing buffer and immediate filtration via glass fiber filters mounted on a 96-well plate (filter plate). The filters were washed (5 × 200 μL of ice-cold washing buffer), dried, and the amount of substrate inside the filtered vesicles was determined by liquid scintillation counting.

[7] = target: OATP1A2 (Homo sapiens, UniProt P46721); assay: Uptake transporter inhibition assay, OATP1A2; conditions: for Accumulation (counts per minute; CPM) HEK293FT-MOCK / Accumulation (counts per minute; CPM) HEK293FT-OATP1A2: OATP1A2;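 note: cellular uptake of a radiolabeled probe substrate in HBSS pH 7.4 at 37 °C with test compound or solvent, measured by liquid scintillation counting of cell lysates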
Sequence of OATP1A2 (P46721 whole entry): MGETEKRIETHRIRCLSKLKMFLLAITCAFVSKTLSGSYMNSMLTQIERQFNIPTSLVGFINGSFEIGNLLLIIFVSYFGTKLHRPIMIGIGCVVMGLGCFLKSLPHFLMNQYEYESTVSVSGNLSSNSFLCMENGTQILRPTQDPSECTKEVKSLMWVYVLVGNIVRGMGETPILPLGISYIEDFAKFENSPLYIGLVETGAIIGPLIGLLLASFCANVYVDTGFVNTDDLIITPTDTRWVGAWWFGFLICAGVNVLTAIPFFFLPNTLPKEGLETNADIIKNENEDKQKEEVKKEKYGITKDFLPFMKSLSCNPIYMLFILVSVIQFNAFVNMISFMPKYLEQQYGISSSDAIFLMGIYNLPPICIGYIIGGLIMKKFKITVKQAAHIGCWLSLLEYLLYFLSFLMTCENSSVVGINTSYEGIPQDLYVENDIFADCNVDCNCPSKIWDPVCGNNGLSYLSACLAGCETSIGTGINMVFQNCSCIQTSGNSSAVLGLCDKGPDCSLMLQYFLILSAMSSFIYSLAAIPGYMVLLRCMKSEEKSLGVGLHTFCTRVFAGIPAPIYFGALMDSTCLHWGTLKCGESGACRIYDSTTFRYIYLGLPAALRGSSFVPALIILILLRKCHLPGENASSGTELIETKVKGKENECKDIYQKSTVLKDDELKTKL
Description: For the uptake transporter inhibition assay, cells were washed twice with 100 μL of the appropriate buffer (HK, pH 7.4) for OATP1B1, followed by HBSS (pH 7.4) for (NTCP, OAT1, OAT2v1, OATP1A2, and OATP1B3). Uptake experiments were carried out at 37 ± 1°C in 50 μL of the respective buffer containing the probe substrate and the compound or solvent. […] After the experiment, cells were washed twice with 100 μL of cold appropriate buffer and lysed with 50 μL of 0.1 M NaOH. Radiolabeled probe substrate transport was determined by measuring an aliquot (35 μL) from each well for liquid scintillation counting.

[8] = Pharmacokinetics in mice, serum and liver concentrations; conditions: for serum conc: mouse, 3 mg/kg p.o., individual animals, 3 mg/kg
Description: The mice were separated into four groups of 32 mice per group. […] At time point t = 0, animals received a single dose of the compounds orally. […] Four hours after drug administration, the animals received standard chow. […] After solubilization in extraction buffer, the solutions were shaken for 1 min and then centrifuged for 4 min (4000 x g).

[9] = summary comparison CPL207280 vs TAK-875
[10] = Dog (Beagle) microsomes, mean n = 2
[11] = rat, dose 200 mg/kg, Day 1, individual animals, 200 mg/kg

CC#C[C@@H](CC(=O)O)c1ccc(OCC(C)=C(C)C)cc1 [CPL207280]
viability at 48 h, 0.78 µM ([1]; 0.78 uM): 109%
viability at 48 h, 3.125 µM ([1]; 3.125 uM): 111%
viability at 48 h, 6.25 µM ([1]; 6.25 uM): 108%
viability at 48 h, 25 µM ([1]; 25 uM): 107%
viability at 48 h, 50 µM ([1]; 50 uM): 94.1%
viability at 48 h, 100 µM ([1]; 100 uM): 80.6%
viability ([2]; human primary hepatocytes, 48 h, concentrations up to 10 μM): Neither compound exhibited altered viability
reduction of viability ([2]; primary cells, 48 h, 100 μM): 20%
viability, normalized to DMSO-treated controls ([2]; 48 h, 0.78 uM): 113.603 and 101.249
viability, normalized to DMSO-treated controls ([2]; 48 h, 3.125 uM): 114.319 and 102.513
viability, normalized to DMSO-treated controls ([2]; 48 h, 6.25 uM): 112.73 and 100.537
viability, normalized to DMSO-treated controls ([2]; 48 h, 25 uM): 106.605 and 99.5091
viability, normalized to DMSO-treated controls ([2]; 48 h, 50 uM): 95.5759 and 86.1766
viability, normalized to DMSO-treated controls ([2]; 48 h, 100 uM): 81.3191 and 75.1172
Toxicity for human hepatocytes [2, 9]: <
half-life at 3 μM ([3]; Human microsomes, mean n = 2): 28 min
microsomal CLint at 3 μM ([3]; Human microsomes, mean n = 2): 49.2 µL/min/mg
stability classification in microsomes ([3]; based on the Clint values from different species, reference ranges by Cyprotex (human range given in legend)): unstable compound
average DEG [%] ([3]; 0 min): 100.0%
average DEG [%] ([3]; 20 min): 45.8942%
average DEG [%] ([3]; 40 min): 32.2635%
average DEG [%] ([3]; 60 min): 21.8%
half-life at 3 μM [4, 10]: 81 min
microsomal CLint at 3 μM [4, 10]: 17.1 µL/min/mg
average DEG [%] ([4]; 0 min): 100.0%
average DEG [%] ([4]; 20 min): 86.5%
average DEG [%] ([4]; 40 min): 74.9%
average DEG [%] ([4]; 60 min): 59.3%
AUC ([5]; Wistar Han, rat, plasma, oral, 200 mg/kg, rat, dose 200 mg/kg, Day 1, individual animals, read-out: exposure - AUC): 1240 µg·h/mL
plasma conc ([5]; rat, 3 mg/kg i.v., 0.08 h, single animals, 3 mg/kg): 18185.2 and 14086.9 and 17991
plasma conc ([5]; rat, 3 mg/kg i.v., 0.5 h, single animals, 3 mg/kg): 13324.4 and 11131.5 and 13374.4
plasma conc ([5]; rat, 3 mg/kg i.v., 1 h, single animals, 3 mg/kg): 9899.4 and 7427.8 and 10049.5
plasma conc ([5]; rat, 3 mg/kg i.v., 2 h, single animals, 3 mg/kg): 3412.2 and 2931.7 and 2551.4
plasma conc ([5]; rat, 3 mg/kg i.v., 4 h, single animals, 3 mg/kg): 1459.2 and 957.7 and 1370.6
plasma conc ([5]; rat, 3 mg/kg i.v., 7 h, single animals, 3 mg/kg): 919.9 and 275.5 and 163.6 and 442.9
plasma conc ([5]; rat, 3 mg/kg i.v., 12 h, single animals, 3 mg/kg): 109.4 and 40.7 and 9.1 and 38.7
plasma conc ([5]; rat, 3 mg/kg p.o., 0.5 h, single animals, 3 mg/kg): 1251.2 and 962.3 and 1047.3 and 2942.9 and 2148.4
plasma conc ([5]; rat, 3 mg/kg p.o., 1 h, single animals, 3 mg/kg): 1116.7 and 1016.5 and 1560.5 and 2895.7 and 1904.8
plasma conc ([5]; rat, 3 mg/kg p.o., 2 h, single animals, 3 mg/kg): 850.9 and 932.5 and 1176.4 and 3463.8 and 1438.7
plasma conc ([5]; rat, 3 mg/kg p.o., 4 h, single animals, 3 mg/kg): 878.1 and 1000.4 and 1366.6 and 4024.4 and 840.4
plasma conc ([5]; rat, 3 mg/kg p.o., 8 h, single animals, 3 mg/kg): 569.6 and 2137.2 and 517.2 and 1993.4 and 909.2
plasma conc ([5]; rat, 3 mg/kg p.o., 12 h, single animals, 3 mg/kg): 324.7 and 347.6 and 456.6 and 204.4 and 474.2
plasma conc ([5]; rat, 3 mg/kg p.o., 24 h, single animals, 3 mg/kg): 48.1 and 66.5 and 10.8 and 7 and 230.9
Cmax [5, 11]: 183679 ng/mL and 165539 ng/mL and 190632 ng/mL and 189701 ng/mL and 159390 ng/mL
exposure - AUC [5, 11]: 1896 µg·h/mL and 1692 µg·h/mL and 1420 µg·h/mL and 1892 µg·h/mL and 1506 µg·h/mL
Cmax ([5]; rat, plasma, 200 mg/kg, rat, dose 200 mg/kg, Day 1, individual animals, read-out: Cmax): 198000 ng/mL
concentration at 0.08 h ([5]; rat, plasma, iv, 3 mg/kg, rat, 3 mg/kg i.v., 0.08 h, single animals, read-out: plasma conc): 19200 ng/mL
concentration at 0.5 h ([5]; rat, plasma, iv, 3 mg/kg, rat, 3 mg/kg i.v., 0.5 h, single animals, read-out: plasma conc): 16300 ng/mL
concentration at 1 h ([5]; rat, plasma, iv, 3 mg/kg, rat, 3 mg/kg i.v., 1 h, single animals, read-out: plasma conc): 10900 ng/mL
concentration at 2 h ([5]; rat, plasma, iv, 3 mg/kg, rat, 3 mg/kg i.v., 2 h, single animals, read-out: plasma conc): 3720 ng/mL
concentration at 4 h ([5]; rat, plasma, iv, 3 mg/kg, rat, 3 mg/kg i.v., 4 h, single animals, read-out: plasma conc): 1570 ng/mL
Tmax ([5]; rat, plasma, iv, 3 mg/kg, rats, 3 mg/kg i.v.): 4.98 min
Cmax ([5]; rat, plasma, iv, 3 mg/kg, rats, 3 mg/kg i.v., n = 5, read-out: Cmax): 17400 ± 2250 ng/mL
AUC ([5]; rat, plasma, iv, 3 mg/kg, rats, 3 mg/kg i.v., read-out: AUC): 27.1 ± 1.62 µg·h/mL
bioavailability ([5]; rat, plasma, oral, rats, 3 mg/kg p.o. vs i.v., read-out: F (bioavailability)): 63%
Tmax ([5]; rat, plasma, po, 3 mg/kg, rats, 3 mg/kg p.o.): 60 min
AUC ([5]; rat, plasma, po, 3 mg/kg, rats, 3 mg/kg p.o., read-out: AUC): 17.6 ± 4.08 µg·h/mL
Vd ([5]; rat, plasma, rats, 3 mg/kg): 0.2 ± 0.01 L/kg
k el ([5]; rat, plasma, rats, 3 mg/kg): 0.000144 s⁻¹
greater Kel than TAK-875 ([5]; rats, 3 mg/kg): 2 x
Bioavailability in rats [5, 9]: >
Exposure in rat plasma for the same dose [5, 9]: ≥
Accumulation (counts per minute; CPM) with AMP ([6]; conc 0.10 µM): 240 CPM and 237 CPM
Accumulation (counts per minute; CPM) with ATP ([6]; conc 0.10 µM): 3273 CPM and 4152 CPM
Accumulation (counts per minute; CPM) with AMP ([6]; conc 1.00 µM): 221 CPM and 228 CPM
Accumulation (counts per minute; CPM) with ATP ([6]; conc 1.00 µM): 4818 CPM and 3968 CPM
Accumulation (counts per minute; CPM) with AMP ([6]; conc 3.00 µM): 249 CPM and 236 CPM
Accumulation (counts per minute; CPM) with ATP ([6]; conc 3.00 µM): 4175 CPM and 4726 CPM
Accumulation (counts per minute; CPM) with AMP ([6]; conc 10.00 µM): 274 CPM and 219 CPM
Accumulation (counts per minute; CPM) with ATP ([6]; conc 10.00 µM): 3924 CPM and 3961 CPM
Accumulation (counts per minute; CPM) with AMP ([6]; conc 30.00 µM): 231 CPM and 249 CPM
Accumulation (counts per minute; CPM) with ATP ([6]; conc 30.00 µM): 5849 CPM and 5611 CPM
Accumulation (counts per minute; CPM) with AMP ([6]; conc 100.00 µM): 250 CPM and 247 CPM
Accumulation (counts per minute; CPM) with ATP ([6]; conc 100.00 µM): 5885 CPM and 4953 CPM
Accumulation (counts per minute; CPM) with AMP ([6]; conc 300.00 µM): 206 CPM and 163 CPM
Accumulation (counts per minute; CPM) with ATP ([6]; conc 300.00 µM): 6861 CPM and 6621 CPM
MRP3 Estimated IC50 (95% CI of IC50) ([6]; vesicles, up to 300μM, n = 2): no affinity
IC50 [7]: 118 µM
fold less inhibitory potency than TAK-875, OATP1A2 [7]: at least 10 fold
Accumulation (counts per minute; CPM) HEK293FT-MOCK ([7]; conc 0.10 µM): 191 CPM and 198 CPM
Accumulation (counts per minute; CPM) HEK293FT-OATP1A2 ([7]; conc 0.10 µM): 9941 CPM and 9363 CPM
Accumulation (counts per minute; CPM) HEK293FT-MOCK ([7]; conc 1.00 µM): 175 CPM and 167 CPM
Accumulation (counts per minute; CPM) HEK293FT-OATP1A2 ([7]; conc 1.00 µM): 9582 CPM and 8309 CPM
Accumulation (counts per minute; CPM) HEK293FT-MOCK ([7]; conc 3.00 µM): 170 CPM and 189 CPM
Accumulation (counts per minute; CPM) HEK293FT-OATP1A2 ([7]; conc 3.00 µM): 9105 CPM and 8526 CPM
Accumulation (counts per minute; CPM) HEK293FT-MOCK ([7]; conc 10.00 µM): 199 CPM and 184 CPM
Accumulation (counts per minute; CPM) HEK293FT-OATP1A2 ([7]; conc 10.00 µM): 8813 CPM and 8062 CPM
Accumulation (counts per minute; CPM) HEK293FT-MOCK ([7]; conc 30.00 µM): 160 CPM and 178 CPM
Accumulation (counts per minute; CPM) HEK293FT-OATP1A2 ([7]; conc 30.00 µM): 6805 CPM and 7468 CPM
Accumulation (counts per minute; CPM) HEK293FT-MOCK ([7]; conc 100.00 µM): 179 CPM and 165 CPM
Accumulation (counts per minute; CPM) HEK293FT-OATP1A2 ([7]; conc 100.00 µM): 5379 CPM and 5182 CPM
Accumulation (counts per minute; CPM) HEK293FT-MOCK ([7]; conc 300.00 µM): 144 CPM and 136 CPM
Accumulation (counts per minute; CPM) HEK293FT-OATP1A2 ([7]; conc 300.00 µM): 2696 CPM and 2783 CPM
distribution between liver and serum ([8]; mice, single oral dose 3 mg/kg, 15 min to 24 h): serum was observed to be the central compartment
serum conc ([8]; 0.5 h): 6337 and 10977.8 and 8698.6 and 7860.2
serum conc ([8]; 1 h): 14190.2 and 17872.7 and 14644.7 and 11914.7
serum conc ([8]; 2 h): 4293.9 and 8727 and 12877.2 and 5407.3
serum conc ([8]; 4 h): 1048.2 and 2271.3 and 3572 and 4146.1
serum conc ([8]; 7 h): 456.3 and 1659.3 and 757.1 and 1712.9
serum conc ([8]; 12 h): 198.5 and 247.1 and 27.4 and 10.5
serum conc ([8]; 24 h): 14.5 and 37.9 and 532.6 and 298
Penetration into the liver [8, 9]: <
